Legend:
Sclerotinia sclerotiorum [1] = test: Fungistatic activity in Sclerotinia sclerotiorum assessed as inhibition of carpogenic germination in volatile phase at 751 umol/l measured at 20 degC after 5 days relative to control; assay type: functional; conditions: 120 h
Sclerotinia sclerotiorum [2] = test: Fungitoxic activity in Sclerotinia sclerotiorum assessed as inhibition of mycelial growth in volatile phase at 751 umol/l measured at 20 degC after 5 days relative to control; assay type: functional; conditions: 120 h, read-out: GI
Sclerotinia sclerotiorum [3] = test: Antifungal activity against Sclerotinia sclerotiorum assessed as inhibition of germination in volatile phase at 75 umol/l measured at 20 degC after 5 days; assay type: functional; conditions: 120 h
Sclerotinia sclerotiorum [4] = test: Antifungal activity against Sclerotinia sclerotiorum assessed as inhibition of germination in volatile phase at 225 umol/l measured at 20 degC after 5 days; assay type: functional; conditions: 120 h
Sclerotinia sclerotiorum [5] = test: Antifungal activity against Sclerotinia sclerotiorum assessed as inhibition of mycelial growth in volatile phase at 38 umol/l measured at 20 degC after 5 days; assay type: functional; conditions: 120 h, read-out: GI
Sclerotinia sclerotiorum [6] = test: Antifungal activity against Sclerotinia sclerotiorum assessed as inhibition of mycelial growth in contact phase at 676 umol/l measured at 20 degC after 5 days; assay type: functional; conditions: 120 h, read-out: GI
Sclerotinia sclerotiorum [7] = test: Fungistatic activity in Sclerotinia sclerotiorum assessed as inhibition of mycelial growth in volatile phase at 525 umol/l measured at 20 degC after 5 days relative to control; assay type: functional; conditions: 120 h, read-out: GI
Sclerotinia sclerotiorum [8] = test: Antifungal activity against Sclerotinia sclerotiorum assessed as inhibition of mycelial growth in contact phase at 751 umol/l measured at 20 degC after 5 days; assay type: functional; conditions: 120 h, read-out: GI
Sclerotinia sclerotiorum [9] = test: Fungistatic activity in Sclerotinia sclerotiorum assessed as inhibition of mycelial growth in contact phase at 1501 umol/l measured at 20 degC after 5 days relative to control; assay type: functional; conditions: 120 h, read-out: GI
Sclerotinia sclerotiorum [10] = test: Antifungal activity against Sclerotinia sclerotiorum assessed as inhibition of germination in volatile phase at 38 umol/l measured at 20 degC after 5 days; assay type: functional; conditions: 120 h
Sclerotinia sclerotiorum [11] = test: In vivo antifungal Sclerotinia sclerotiorum in Pepper (Capsicum annuum L. cv. Sera Demre) assessed as inhibition of mycelial growth in volatile phase at 75 umol/L measured after 10 to 14 weeks; assay type: functional
Sclerotinia sclerotiorum [12] = test: Antifungal activity against Sclerotinia sclerotiorum assessed as inhibition of mycelial growth in contact phase at 1501 umol/l measured at 20 degC after 5 days; assay type: functional; conditions: 120 h, read-out: GI
Sclerotinia sclerotiorum [13] = test: Fungistatic activity in Sclerotinia sclerotiorum assessed as sclerotial viability measured at 20 degC after 5 days; assay type: functional, organism-based; conditions: 120 h
Sclerotinia sclerotiorum [14] = test: Antifungal activity against Sclerotinia sclerotiorum assessed as inhibition of mycelial growth in contact phase at 2252 umol/l measured at 20 degC after 5 days; assay type: functional; conditions: 120 h, read-out: GI
Sclerotinia sclerotiorum [15] = test: Fungistatic activity in Sclerotinia sclerotiorum assessed as inhibition of carpogenic germination in volatile phase at 38 umol/l measured at 20 degC after 5 days relative to control; assay type: functional; conditions: 120 h
Sclerotinia sclerotiorum [16] = test: Antifungal activity against Sclerotinia sclerotiorum assessed as inhibition of mycelial growth in volatile phase at 751 umol/l measured at 20 degC after 5 days; assay type: functional; conditions: 120 h, read-out: GI
Sclerotinia sclerotiorum [17] = test: Antifungal activity against Sclerotinia sclerotiorum assessed as inhibition of mycelial growth in contact phase at 525 umol/l measured at 20 degC after 5 days; assay type: functional; conditions: 120 h, read-out: GI
Sclerotinia sclerotiorum [18] = test: In vivo antifungal Sclerotinia sclerotiorum in Pepper (Capsicum annuum L. cv. Sera Demre) assessed as inhibition of mycelial growth in volatile phase at 150 umol/L measured after 10 to 14 weeks; assay type: functional
Sclerotinia sclerotiorum [19] = test: Antifungal activity against Sclerotinia sclerotiorum assessed as inhibition of mycelial growth in volatile phase at 75 umol/l measured at 20 degC after 5 days; assay type: functional; conditions: 120 h, read-out: GI
Sclerotinia sclerotiorum [20] = test: Fungistatic activity in Sclerotinia sclerotiorum assessed as inhibition of mycelial growth in volatile phase measured at 20 degC after 5 days; assay type: functional, organism-based; conditions: 120 h
Sclerotinia sclerotiorum [21] = test: Antifungal activity against Sclerotinia sclerotiorum assessed as inhibition of mycelial growth in volatile phase at 375 umol/l measured at 20 degC after 5 days; assay type: functional; conditions: 120 h, read-out: GI
Sclerotinia sclerotiorum [22] = test: Antifungal activity against Sclerotinia sclerotiorum assessed as inhibition of germination in volatile phase at 375 umol/l measured at 20 degC after 5 days; assay type: functional; conditions: 120 h
Sclerotinia sclerotiorum [23] = test: Fungistatic activity in Sclerotinia sclerotiorum assessed as inhibition of carpogenic germination in volatile phase at 375 umol/l measured at 20 degC after 5 days relative to control; assay type: functional; conditions: 120 h
Sclerotinia sclerotiorum [24] = test: Fungistatic activity in Sclerotinia sclerotiorum assessed as inhibition of carpogenic germination in volatile phase at 75 umol/l measured at 20 degC after 5 days relative to control; assay type: functional; conditions: 120 h
Sclerotinia sclerotiorum [25] = test: Fungitoxic activity in Sclerotinia sclerotiorum assessed as inhibition of mycelial growth in contact phase at 2252 umol/l measured at 20 degC after 5 days relative to control; assay type: functional; conditions: 120 h, read-out: GI
Sclerotinia sclerotiorum [26] = test: Fungitoxic activity in Sclerotinia sclerotiorum assessed as viability in volatile phase at 225 umol/l measured at 20 degC after 5 days relative to control; assay type: functional; conditions: 120 h, read-out: GI
Sclerotinia sclerotiorum [27] = test: Fungistatic activity in Sclerotinia sclerotiorum assessed as inhibition of mycelial growth in contact phase measured at 20 degC after 5 days; assay type: functional, organism-based; conditions: 120 h
Sclerotinia sclerotiorum [28] = test: Antifungal activity against Sclerotinia sclerotiorum assessed as inhibition of mycelial growth in volatile phase at 525 umol/l measured at 20 degC after 5 days; assay type: functional; conditions: 120 h, read-out: GI
Sclerotinia sclerotiorum [29] = test: Antifungal activity against Sclerotinia sclerotiorum assessed as inhibition of germination in volatile phase at 751 umol/l measured at 20 degC after 5 days; assay type: functional; conditions: 120 h

In the case of `S=C=NCc1ccccc1` [BENZYL ISOTHIOCYANATE], the inhibition at 751 µM (Sclerotinia sclerotiorum [1]) is reported as 92.5%, the inhibition of growth at 751 µM (Sclerotinia sclerotiorum [2]) is reported as 100% and the inhibition at 75 µM (Sclerotinia sclerotiorum [3]) is reported as 53.3%. The inhibition at 225 µM (Sclerotinia sclerotiorum [4]) was 100%, the inhibition of growth at 38 µM (Sclerotinia sclerotiorum [5]) was 35% and the inhibition of growth at 676 µM (Sclerotinia sclerotiorum [6]) was 37%. It also gave an inhibition of growth at 525 µM (Sclerotinia sclerotiorum [7]) of 100%, an inhibition of growth at 751 µM (Sclerotinia sclerotiorum [8]) of 100% and an inhibition of growth at 1501 µM (Sclerotinia sclerotiorum [9]) of 100%. For the same compound, the inhibition at 38 µM (Sclerotinia sclerotiorum [10]) was 6.7%, the inhibition in vivo at 75 µM (Sclerotinia sclerotiorum [11]) was 36.7% and the inhibition of growth at 1501 µM (Sclerotinia sclerotiorum [12]) was 100%. It also gave an EC50 (Sclerotinia sclerotiorum [13]) of 75.1 µM, an inhibition of growth at 2252 µM (Sclerotinia sclerotiorum [14]) of 100% and an inhibition at 38 µM (Sclerotinia sclerotiorum [15]) of 55%. It also gave an inhibition of growth at 751 µM (Sclerotinia sclerotiorum [16]) of 100%, an inhibition of growth at 525 µM (Sclerotinia sclerotiorum [17]) of 5% and an inhibition in vivo at 150 µM (Sclerotinia sclerotiorum [18]) of 63.3%. The inhibition of growth at 75 µM (Sclerotinia sclerotiorum [19]) was 71.2%, the EC50 (Sclerotinia sclerotiorum [20]) was 60.1 µM and the inhibition of growth at 375 µM (Sclerotinia sclerotiorum [21]) was 78.2%. The inhibition at 375 µM (Sclerotinia sclerotiorum [22]) was 100%, the inhibition at 375 µM (Sclerotinia sclerotiorum [23]) was 72.5% and the inhibition at 75 µM (Sclerotinia sclerotiorum [24]) was 62.5%. For the same compound, the inhibition of growth at 2252 µM (Sclerotinia sclerotiorum [25]) was 100%, the inhibition of growth at 225 µM (Sclerotinia sclerotiorum [26]) was 100% and the EC50 (Sclerotinia sclerotiorum [27]) was 676 µM. The inhibition of growth at 525 µM (Sclerotinia sclerotiorum [28]) was 100% and the inhibition at 751 µM (Sclerotinia sclerotiorum [29]) was 100%.

— ChEMBL document CHEMBL3046027, “In vitro and in vivo antifungal activity of synthetic pure isothiocyanates against Sclerotinia sclerotiorum” (Pest Manag Sci, 2011)
